{
  "source": "patent US20220232835A1",
  "about": "“PLANT HEALTH EFFECT OF PURPUREOCILLIUM LILACINUM” (priority 2016, published 2022)",
  "key": {"[1]": {"test_system": "Southern Root Knot Nematode (Meloidogyne incognita)", "experiment": "Drench test in tomato: nematicidal activity (percentage of gall reduction)", "format": "in vivo", "conditions": "10 mg per plant at transplanting; 3,000 Meloidogyne incognita per 100 cm^3 of soil", "method": "(§1) To prepare a suitable dosage form the formulated product PL251 (liquid formulation of P. lilacinum comprising BREAK-THRU® S240 and AEROSIL®) is diluted with water to the desired concentration.\n(§2) A quantity of 5,000 cm^3 of sandy loam soil, pH 6.8 per pot is mixed with 150,000 infective units (mixed population of eggs and juveniles) of the Southern Root Knot Nematode (Meloidogyne incognita). The desired concentration of Purpureocillium lilacinum strain 251 is drenched in 400 mL of solution (application A) to obtain 80% field capacity. Pots are incubated at 25° C. until transplanting of tomato seedlings (Lycopersicon lycopersicum) at 7 days after drench application A. At the day of transplanting a second drench application (application B) is carried out with 400 mL of solution.\n(§3) After transplanting of tomato seedlings several post-plant application patterns are tested using 400 mL of solution per application (Table A).\n(§4) In addition, 10 mg of the nematicide fluopyram (VELUM® PRIME, suspension concentrate SC 400) is applied at transplanting and used as a chemical reference. The non-treated control (UTC) is drenched with 400 mL of water at each application. […]\n(§5) After the specified period the nematicidal activity is determined on the basis of the percentage of gall reduction. […] Moreover the shoot biomass is also determined to assess the overall plant health status. […]"}, "[2]": {"test_system": "tomato seedlings (Lycopersicon lycopersicum)", "experiment": "Drench test in tomato: shoot biomass (plant health)", "format": "in vivo", "conditions": "10 mg fluopyram/plant at transplanting", "method": "as §1, §2, §3, §4, §5"}},
  "data": [
    {"molecule": "O=C(NCCc1ncc(C(F)(F)F)cc1Cl)c1ccccc1C(F)(F)F", "note": "[fluopyram]", "values": [
      {"measurement": "nematicidal activity (percentage of gall reduction)", "setting": "[1]", "value": "excellent biocontrol activity"},
      {"measurement": "shoot fresh weight vs UTC (ANOVA, Bonferroni)", "setting": "[2]", "value": "significant improvement of shoot fresh weight"}
    ]}
  ]
}
